Results on 2 compounds are retold here after publication PMC9054212, “Discovery of 4-(2-(dimethylamino)ethoxy)benzohydrazide derivatives as prospective microtubule affinity regulating kinase 4 inhibitors” (RSC Advances, 2020).

For the test, the system named is A549 cells. Description: Annexin-V/PI apoptosis assay by flow cytometry, A549. The class given is cell-based, human. As to conditions: IC50 concentration, 48 h. The protocol:
Annexin-V staining was used to assess the apoptotic potential of the selected hydrazones as described.[22,41] Briefly, cells were treated with IC50 concentration of selected hydrazones for 24 h and control cells were treated with DMSO/culture medium only. After 24 h incubation, approximately 2.0–2.5 × 10^6 cells were collected by trypsinization and washed twice with PBS (5–10 mL). Finally, FITC labelled Annexin-V and PE labelled PI was used for staining the cells using the FITC-Annexin-V kit by following manufacture instructions (BD-Biosciences, USA). Nearly, 10 000 events were recorded using BD LSR II Flow Cytometry Analyzer and analyzed by FlowJo software.
Cancer cells support their growth and maintenance by evading the apoptotic pathways.[48] MARK4 regulates the cancer cell growth and proliferation via modulating the apoptotic pathways.[12,15,46] The treatment of MCF-7 and A549 cells with H4 and H19 inhibit the activity of MARK4, decreases cell proliferation and migration raises the evaluation of these MARK4 inhibitors for the apoptosis induction. Thus, to investigate whether the selected inhibitor induces cell death via apoptosis or not, we have performed Annexin-V/PI staining using flow cytometry. Cells were treated with IC50 concentration of each molecule for 48 h and processed for apoptosis analysis. […]

Structures are written as SMILES.

Turning to `Cc1cc(C)c(C=NNC(=O)c2ccc(OCCN(C)C)cc2)c(C)c1` [H19], the “apoptosis induced, share of A549 cells” value is on record as 24.25%.
For the compound `CN(C)CCOc1ccc(C(=O)NN=Cc2ccc(Cl)cc2)cc1` [H4], the “apoptosis induced, share of A549 cells” value is 28.5%.
